Measured values from US6277847A, “Herbicidal isoindolinonyl-and 3,4-dihydroisoquinolonyl-substituted heterocycles” (FMC Corporation, priority 2000, dated 2001).

Columns and labels:
Format in all cases: in vivo
[1] = tested on: green foxtail (Setaria viridis); assay: pre-emergence herbicidal activity, green foxtail; conditions: 1 kg/Ha, about fourteen days, read-out: pre-emergence herbicidal activity (% control) SETVI
In short: (§1)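 Seeds sown in soil flats and sprayed pre-emergence with a water/acetone solution of test compound at 1 kg/Ha; untreated controls kept alongside. Phytotoxicity scored after about fourteen days as percent control, 0 being no effect and 100 complete control.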

[2] = tested on: soybean (Glycine max -- var. Winchester); assay: pre-emergence herbicidal activity, soybean; conditions: 1 kg/Ha, about fourteen days, read-out: pre-emergence herbicidal activity (% control) SOY
In short: as §1

[3] = tested on: Johnsongrass (Sorghum halepense); assay: pre-emergence herbicidal activity, johnsongrass; conditions: 1 kg/Ha, about fourteen days, read-out: pre-emergence herbicidal activity (% control) SORHA
In short: as §1

[4] = tested on: wheat (Triticum aestivum var. Lew); assay: pre-emergence herbicidal activity, wheat; conditions: 1 kg/Ha, about fourteen days, read-out: pre-emergence herbicidal activity (% control) WHT
In short: as §1

[5] = tested on: wheat (Triticum aestivum var. Lew); assay: post-emergence herbicidal activity, wheat; conditions: 1 Kg/Ha, about fourteen days, read-out: post-emergence herbicidal activity (% control) WHT
In short: (§2)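 Application rate was 1 Kg/Ha, sprayed post-emergence from a water/acetone solution onto flat-grown plants. Injury is expressed as percent control, 100 meaning complete control, assessed roughly two weeks later.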

[6] = tested on: green foxtail (Setaria viridis); assay: post-emergence herbicidal activity, green foxtail; conditions: 1 Kg/Ha, about fourteen days, read-out: post-emergence herbicidal activity (% control) SETVI
In short: as §2

[7] = tested on: Johnsongrass (Sorghum halepense); assay: post-emergence herbicidal activity, johnsongrass; conditions: 1 Kg/Ha, about fourteen days, read-out: post-emergence herbicidal activity (% control) SORHA
In short: as §2

[8] = tested on: morningglory (Ipomea lacunosa or Ipomea hederacea); assay: pre-emergence herbicidal activity, morningglory; conditions: Ipomoea, 1 kg/Ha, about fourteen days, read-out: pre-emergence herbicidal activity (% control) IPOSS
In short: as §1

[9] = tested on: blackgrass (Aloepecurus myosuroides); assay: pre-emergence herbicidal activity, blackgrass; conditions: Alopecurus myosuroides, 1 kg/Ha, about fourteen days, read-out: pre-emergence herbicidal activity (% control) ALOMY
In short: as §1

[10] = tested on: common chickweed (Stellaria media); assay: post-emergence herbicidal activity, chickweed; conditions: 1 Kg/Ha, about fourteen days, read-out: post-emergence herbicidal activity (% control) STEME
In short: as §2

[11] = tested on: soybean (Glycine max -- var. Winchester); assay: post-emergence herbicidal activity, soybean; conditions: 1 Kg/Ha, about fourteen days, read-out: post-emergence herbicidal activity (% control) SOY
In short: as §2

[12] = tested on: common cocklebur (Xanthium strumarium L.); assay: pre-emergence herbicidal activity, cocklebur; conditions: 1 kg/Ha, about fourteen days, read-out: pre-emergence herbicidal activity (% control) XANPE
In short: as §1

[13] = tested on: velvetleaf (Abutilon theophrasti); assay: pre-emergence herbicidal activity, velvetleaf; conditions: 1 kg/Ha, about fourteen days, read-out: pre-emergence herbicidal activity (% control) ABUTH
In short: as §1

[14] = tested on: morningglory (Ipomea lacunosa or Ipomea hederacea); assay: post-emergence herbicidal activity, morningglory; conditions: Ipomoea, 1 Kg/Ha, about fourteen days, read-out: post-emergence herbicidal activity (% control) IPOSS
In short: as §2

[15] = tested on: blackgrass (Aloepecurus myosuroides); assay: post-emergence herbicidal activity, blackgrass; conditions: Alopecurus myosuroides, 1 Kg/Ha, about fourteen days, read-out: post-emergence herbicidal activity (% control) ALOMY
Description: This example sets forth the methods of herbicidal testing conducted on the specific compounds set forth below. Specifically, the compounds referenced below were tested for pre- and post-emergence herbicidal activity using a variety of crops and weeds. The test plants include, but are not limited to, soybean (Glycine max -- var. Winchester), field corn (Zea mays var. Pioneer 3732), wheat (Triticum aestivum var. Lew), morningglory (Ipomea lacunosa or Ipomea hederacea), velvetleaf (Abutilon theophrasti), green foxtail (Setaria viridis), Johnsongrass (Sorghum halepense), blackgrass (Aloepecurus myosuroides), common chickweed (Stellaria media), and common cocklebur (Xanthium strumarium L.).
In the post-emergence test, seeds of the plant species named above were planted in flats containing the appropriate soil mixture where they were maintained to allow the seeds to germinate. When the plants in these flats reached the proper stage of growth, flats for the pre-emergence tests were planted in a like manner. The flats containing the post-emergence and pre-emergence test plant species were then sprayed with an appropriately concentrated water/acetone solution of test compound. Once treated the flats were maintained, along with untreated controls, for about fourteen days. All treated plants were then examined for phytotoxicity, which was expressed as percent control where 0 is no effect and 100 is complete control. Effective rates of application for the compounds of the present invention range from 0.001 to 3 kg/ha, more likely from […] to 1 Kg/ha.
Herbicidal activity data at selected application rates are in Tables 4 and 5. The test compounds are identified by numbers correspond to those in Table 1.
SOY is soybean, WHT is wheat, CRN is corn, ABUTH is velvetleaf, IPOSS is
morningglory, STEME is chickweed, XANPE is cocklebur, ALOMY is blackgrass,
Rate of application of test compound is 1 Kg/Ha. The definitions as shown under Table 4 apply to Table 5.

[16] = tested on: field corn (Zea mays var. Pioneer 3732); assay: pre-emergence herbicidal activity, corn; conditions: 1 kg/Ha, about fourteen days, read-out: pre-emergence herbicidal activity (% control) CRN
In short: as §1

[17] = tested on: velvetleaf (Abutilon theophrasti); assay: post-emergence herbicidal activity, velvetleaf; conditions: 1 Kg/Ha, about fourteen days, read-out: post-emergence herbicidal activity (% control) ABUTH
In short: as §2

[18] = tested on: common cocklebur (Xanthium strumarium L.); assay: post-emergence herbicidal activity, cocklebur; conditions: 1 Kg/Ha, about fourteen days, read-out: post-emergence herbicidal activity (% control) XANPE
In short: as §2

[19] = tested on: common chickweed (Stellaria media); assay: pre-emergence herbicidal activity, chickweed; conditions: 1 kg/Ha, about fourteen days, read-out: pre-emergence herbicidal activity (% control) STEME
In short: as §1

[20] = tested on: field corn (Zea mays var. Pioneer 3732); assay: post-emergence herbicidal activity, corn; conditions: 1 Kg/Ha, about fourteen days, read-out: post-emergence herbicidal activity (% control) CRN
In short: as §2

Compound | activity at 1000 g/ha [1] [%] | activity at 1000 g/ha [2] [%] | activity at 1000 g/ha [3] [%] | activity at 1000 g/ha [4] [%] | activity at 1000 g/ha [5] [%] | activity at 1000 g/ha [6] [%] | activity at 1000 g/ha [7] [%] | activity at 1000 g/ha [8] [%] | activity at 1000 g/ha [9] [%] | activity at 1000 g/ha [10] [%] | activity at 1000 g/ha [11] [%] | activity at 1000 g/ha [12] [%] | activity at 1000 g/ha [13] [%] | activity at 1000 g/ha [14] [%] | activity at 1000 g/ha [15] [%] | activity at 1000 g/ha [16] [%] | activity at 1000 g/ha [17] [%] | activity at 1000 g/ha [18] [%] | activity at 1000 g/ha [19] [%] | activity at 1000 g/ha [20] [%]
CC(C)N1Cc2c(ccc(Cl)c2-n2c(=O)cc(C(F)(F)F)n(C)c2=O)C1=O [Compound 1] | 100 | 90 | 90 | 80 | 70 | 80 | 100 | 100 | 80 | 50 | 95 | 70 | 100 | 70 | 75 | 95 | 100 | 60 | 90 | 90
CC(C)N1Cc2c(-n3c(=O)cc(C(F)(F)F)n(C)c3=O)ccc(Cl)c2C1=O [Compound 3, 3-[7-chloro-2-(1-methylethyl)isoindolin-1-on-4-yl]-1-methyl-6-trifluoromethyl-2,4(1H,3H)-pyrimidinedione] | 100 | 100 | 100 | 100 | 100 | 100 | 100 | 100 | 100 | 100 | 95 | 100 | 100 | 100 | 100 | 100 | 100 | 100 | 100 | 100
CC(C)N1Cc2c(c(Cl)cc(Cl)c2-n2c(=O)cc(C(F)(F)F)n(C)c2=O)C1=O [Compound 4] | 100 | 100 | 100 | 100 | 100 | 100 | 100 | 100 | 100 | 100 | 100 | 100 | 100 | 100 | 100 | 100 | 100 | 100 | 100 | 100
CCN1Cc2c(c(Cl)cc(Cl)c2-n2c(=O)cc(C(F)(F)F)n(C)c2=O)C1=O [Compound 5] | 100 | 100 | 100 | 100 | 100 | 100 | 100 | 100 | 100 | 100 | 95 | 100 | 100 | 100 | 100 | 100 | 100 | 100 | 100 | 100
COCCN1Cc2c(-n3c(=O)cc(C(F)(F)F)n(C)c3=O)ccc(Cl)c2C1=O [Compound 23] | 100 | 100 | – | 100 | 100 | 100 | 100 | 100 | – | 100 | 100 | 100 | 100 | 100 | 100 | 100 | 100 | 100 | 100 | 80
Cn1c(C(F)(F)F)cc(=O)n(-c2ccc(Cl)c3c2CN(Cc2ccc(Cl)cc2)C3=O)c1=O [Compound 24] | 95 | 10 | – | 30 | 30 | 70 | 40 | 30 | – | 100 | 60 | 10 | 100 | 30 | 70 | 50 | 100 | 80 | 70 | 70
CC(C)N1Cc2c(c(Cl)cc(Cl)c2N2C(=O)C3=C(CCCC3)C2=O)C1=O [Compound 82, 1-[5,7-dichloro-2-(1-methylethyl)isoindolin-1-on-4-yl]-3,4,5,6-tetrahydrophthalimide] | 100 | 70 | – | 60 | 40 | 100 | – | 100 | 70 | 85 | 60 | 95 | 100 | 95 | 100 | 80 | 100 | 100 | 100 | 65
CC(C)N1Cc2c(-n3nc4n(c3=O)CCCC4)ccc(Cl)c2C1=O [Compound 83, 2-[7-chloro-2-(1-methylethyl)isoindolin-1-on-4-yl]-5,6,7,8-tetrahydro-1,2,4-triazolo[4,3-A]pyridin-3(2H)-one] | 60 | 5 | – | 10 | 30 | 60 | – | 60 | 50 | 80 | 80 | 30 | 100 | 90 | 50 | 0 | 100 | 60 | 100 | 60
